{
  "source": "ChEMBL document CHEMBL4431332",
  "about": "“Identification and Investigation of Novel Binding Fragments in the Fatty Acid Binding Protein 6 (FABP6)” (J Med Chem, 2016)",
  "key": {"[1]": {"target": "T1, Gastrotropin (Homo sapiens, UniProt P51161)", "T1 sequence (P51161 whole entry)": "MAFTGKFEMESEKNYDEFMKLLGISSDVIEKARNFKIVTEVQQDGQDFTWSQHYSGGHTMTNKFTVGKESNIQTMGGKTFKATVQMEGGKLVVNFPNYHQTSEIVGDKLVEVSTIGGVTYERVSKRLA", "assay": "Binding affinity to recombinant human N-terminal His6 and Avi-tagged FABP6 expressed in Escherichia coli NEB cells by surface plasmon resonance method"}, "[2]": {"target": "T2, Fatty acid-binding protein, liver (Homo sapiens, UniProt P07148)", "T2 sequence (P07148 whole entry)": "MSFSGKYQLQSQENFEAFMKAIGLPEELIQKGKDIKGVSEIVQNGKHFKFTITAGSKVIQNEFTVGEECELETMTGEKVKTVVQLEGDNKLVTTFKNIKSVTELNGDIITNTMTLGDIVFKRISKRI", "assay": "Binding affinity to recombinant human N-terminal His6 and Avi-tagged FABP1 expressed in Escherichia coli NEB cells by surface plasmon resonance method"}},
  "data": [
    {"smiles": "Nc1nc2ccc(C(=O)c3ccccc3)cc2[nH]1", "values": [
      {"measurement": "Kd", "setting": "[1]", "value": 13, "unit": "µM"}
    ]},
    {"smiles": "Cc1cc2nc(N)[nH]c2cc1C", "values": [
      {"measurement": "Kd", "setting": "[2]", "value": "> 1000", "unit": "µM"}
    ]},
    {"smiles": "c1ccc(CNc2ccccn2)cc1", "values": [
      {"measurement": "Kd", "setting": "[1]", "value": 300, "unit": "µM"},
      {"measurement": "Kd", "setting": "[2]", "value": 300, "unit": "µM"}
    ]},
    {"smiles": "Cc1nc(Cn2cnc3cc(C)c(C)cc32)cs1", "values": [
      {"measurement": "Kd", "setting": "[1]", "value": 400, "unit": "µM"}
    ]},
    {"smiles": "CS(=O)(=O)N1CCCC(NCc2ccccc2)CC1", "note": "(centres undefined)", "values": [
      {"measurement": "Kd", "setting": "[1]", "value": 300, "unit": "µM"},
      {"measurement": "Kd", "setting": "[2]", "value": "> 1000", "unit": "µM"}
    ]},
    {"smiles": "COC(=O)c1cscc1-c1ccc(C(=O)N2CCOCC2)o1", "values": [
      {"measurement": "Kd", "setting": "[1]", "value": 80, "unit": "µM"},
      {"measurement": "Kd", "setting": "[2]", "value": "> 1000", "unit": "µM"}
    ]},
    {"smiles": "O=C(c1ccco1)N1CCN(Cc2ccc3c(c2)OCO3)CC1", "values": [
      {"measurement": "Kd", "setting": "[1]", "value": 210, "unit": "µM"},
      {"measurement": "Kd", "setting": "[2]", "value": 400, "unit": "µM"}
    ]},
    {"smiles": "O=C1NCCOc2ccc(F)cc21", "values": [
      {"measurement": "Kd", "setting": "[1]", "value": 40, "unit": "µM"},
      {"measurement": "Kd", "setting": "[2]", "value": "> 1000", "unit": "µM"}
    ]},
    {"smiles": "Cc1ccccc1CN1CCN(C(=O)c2cccnc2)CC1", "values": [
      {"measurement": "Kd", "setting": "[1]", "value": 290, "unit": "µM"},
      {"measurement": "Kd", "setting": "[2]", "value": "> 1000", "unit": "µM"}
    ]},
    {"smiles": "CN1CCN(C(=O)c2ccc(=O)n(Cc3ccc(Cl)cc3)c2)CC1", "values": [
      {"measurement": "Kd", "setting": "[1]", "value": 210, "unit": "µM"},
      {"measurement": "Kd", "setting": "[2]", "value": "> 1000", "unit": "µM"}
    ]},
    {"smiles": "Nc1c2c(nc3ccccc13)CCCC2", "note": "[TACRINE]", "values": [
      {"measurement": "Kd", "setting": "[1]", "value": 200, "unit": "µM"},
      {"measurement": "Kd", "setting": "[2]", "value": 900, "unit": "µM"}
    ]}
  ]
}
